Measurements reported in patent publication US10231453B2, “5-substituted imidazole derivatives” (BAYER CROPSCIENCE AKTIENGESELLSCHAFT, priority 2015, dated 2019).

Legend:
Sphaerotheca fuliginea = assay: In vivo preventive test on Sphaerotheca fuliginea (powdery mildew on cucurbits), Examples F and R6; conditions: Podosphaera fuliginea, 360 h; 500 ppm of active ingredient; gherkin, preventive spray, evaluated 15 days after inoculation; read-out: efficacy
Septoria tritici = assay: In vivo preventive test on Septoria tritici (leaf spot on wheat), Examples E, Q3 and R5; conditions: Zymoseptoria tritici, 576 h, 500 ppm of active ingredient; wheat, preventive spray, evaluated 24 days after inoculation; read-out: efficacy
[1] = Measurement of LogP values by HPLC on reversed phase columns (EEC directive 79/831 Annex V.A8); type: physicochemical; conditions: method [a]: LC-UV, acidic range, 0.1% formic acid in water and acetonitrile as eluent; Table 1
Protocol: Measurement of Log P values was performed as outlined above.

Puccinia recondita = assay: In vivo preventive test on Puccinia recondita (brown rust on wheat), Examples C and R3; conditions: Puccinia recondita, 264 h; 500 ppm of active ingredient; wheat, preventive spray, evaluated 11 days after inoculation; read-out: efficacy
Uromyces appendiculatus = assay: In vivo preventive test on Uromyces appendiculatus (bean rust), Examples G and R7; conditions: 264 h, 500 ppm of active ingredient, bean, preventive spray, evaluated 11 days after inoculation, read-out: efficacy
Pyrenophora teres = assay: In vivo preventive test on Pyrenophora teres (net blotch on barley), Examples D, Q2 and R4; conditions: Pyrenophora teres, 336 h, 500 ppm of active ingredient, preventive spray, evaluated 14 days after inoculation, read-out: efficacy
[2] = tested on: Blumeria graminis fsp. hordei; assay: In vivo preventive Blumeria test (barley), Example K; conditions: 168 h, 500 ppm of active ingredient, preventive spray, evaluated 7 days after inoculation, read-out: efficacy
From the text: After the spray coating has been dried, the plants are dusted with spores of Blumeria graminis fsp. hordei.

Botrytis cinerea = assay: In vivo preventive test on Botrytis cinerea (grey mould) on gherkin, Examples B, Q1 and R2; conditions: Botrytis cinerea, 500 ppm of active ingredient, preventive spray, evaluated 4 to 5 days after inoculation, read-out: efficacy

Row | Structure (SMILES) | pest or weed control at 500 ppm (Sphaerotheca fuliginea) [%] | pest or weed control at 500 ppm (Septoria tritici) [%] | chromatographic logP [1] | pest or weed control at 500 ppm (Puccinia recondita) [%] | pest or weed control at 500 ppm (Uromyces appendiculatus) [%] | pest or weed control at 500 ppm (Pyrenophora teres) [%] | pest or weed control at 500 ppm [2] [%] | pest or weed control at 500 ppm (Botrytis cinerea) [%]
1 | N#Cc1cncn1CC(O)(Cc1ccnc(Cl)c1)C1(Cl)CC1 (centres unmarked) [Example I-62] | 90 to 100 | 90 to 100 | 2.04 | 90 to 100 | 90 to 100 | 90 to 100 | 90 to 100 | 
2 | OC(Cc1ccnc(Cl)c1)(Cn1cncc1Cl)C1(Cl)CC1 (centres unmarked) [Example I-75] | 90 to 100 | 90 to 100 | 1.62 | 70 to 79 | 90 to 100 | 80 to 89 | 90 to 100 | 80 to 89
3 | N#Cc1cncn1CC(O)(Cc1ccccc1Cl)C1CC1 (centres unmarked) [Example I-80] | 90 to 100 | 90 to 100 | 2.57 | 80 to 89 | 90 to 100 | 80 to 89 | 90 to 100 | 
4 | CC(C)C(O)(Cc1ccccc1Cl)Cn1cncc1C#N (centres unmarked) [Example I-82] | 90 to 100 | 90 to 100 | 2.67 | 90 to 100 | 90 to 100 | 80 to 89 |  | 90 to 100
5 | OC(Cc1ccc(F)c(F)c1)(Cn1cncc1Cl)C1(Cl)CC1 (centres unmarked) [Example I-110] | 90 to 100 | 80 to 89 | 2.23 | 80 to 89 | 90 to 100 | 90 to 100 |  | 90 to 100
6 | CC(C)C(O)(Cc1ccc(Cl)cc1F)Cn1cncc1C#N (centres unmarked) [Example I-118] | 90 to 100 | 70 to 79 | 2.91 | 90 to 100 | 90 to 100 | 70 to 79 |  | 90 to 100
7 | CC1(C(O)(Cc2ccc(F)cc2F)Cn2cncc2C#N)CC1 (centres unmarked) [Example I-124] | 90 to 100 | 90 to 100 | 2.65 | 90 to 100 | 90 to 100 | 90 to 100 |  | 90 to 100
8 | N#Cc1cncn1CC(O)(Cc1ccc(F)cc1F)CC1CC1 (centres unmarked) [Example I-130] | 90 to 100 | 90 to 100 | 2.69 | 90 to 100 | 90 to 100 | 70 to 79 |  | 90 to 100
9 | CC1(C(O)(Cc2ccccc2F)Cn2cncc2C#N)CC1 (centres unmarked) [Example I-131] | 90 to 100 | 90 to 100 | 2.68 | 90 to 100 | 90 to 100 | 80 to 89 |  | 70 to 79
10 | N#Cc1cncn1CC(O)(Cc1ccccc1F)C1CC1 (centres unmarked) [Example I-136] | 90 to 100 | 90 to 100 |  | 90 to 100 | 90 to 100 |  | 90 to 100 | 
11 | CC(C)C(O)(Cc1ccccc1F)Cn1cncc1C#N (centres unmarked) [Example I-139] | 90 to 100 | 90 to 100 | 2.4 | 90 to 100 | 90 to 100 | 70 to 79 |  | 90 to 100
12 | Cc1cccc(CC(O)(Cn2cncc2C#N)C2(Cl)CC2)c1F (centres unmarked) [Example I-142] | 90 to 100 | 70 to 79 | 2.99 | 80 to 89 | 90 to 100 | 80 to 89 |  | 80 to 89
